Reference: patent publication US10994016B2, “Graphene oxide mediated cellular delivery of gadolinium-labeled molecules” (Northwestern University, priority 2015, dated 2021)

Tested on: HeLa cells
Assay: Cell MR imaging of Magnevist-labeled cells in agarose phantoms (6-well labeling, Gd content by ICP-MS, 7 T)
Format: cell-based
Conditions: for Labeling achieved in the imaging study: after centrifugation; for Sensitivity for labeled cells on T1-weighted MRI: 7T
Description: HeLa cells were labeled by Magnevist with and without 150 nm GO co-incubation in 6-well plates. 2 plates seeded at 300,000 cells per well were needed to produce a sufficient number of cells for imaging. For the condition of GO co-incubation, 4500 μL of Magnevist-GO mixture was prepared at a concentration of 93.3 mM Magnevist and 27 μg/mL GO. The mixture was allowed to adsorb for at least 15 minutes. 375 μL of the Magnevist-GO mixture was added to 625 μL of media in each well to reach a final concentration of 35 mM Magnevist and 10 μg/mL GO. The cells were incubated with the mixture for […]. To harvest, cells were rinsed in-plate three times with 3000 μL PBS and trypsinized using 400 μL 0.25% TrypLE. After 5 minutes of incubation at 37° C., 600 μL of media was added to each well and mixed by a pipette to ensure that all cells were lifted into suspension. After combining all the wells into a 12 mL cell suspension, 3 aliquots of 25 μL each were obtained for cell counting by Guava. 175 μL of Guava ViaCount reagent was used for dilution. Additionally, 200 μL of the cell suspension was transferred to a 1.5-mL microcentrifuge tube, centrifuged at 1000 RPM for 5 min (Thermo Scientific, Model Legend Micro 21R), and re-suspended in 200 μL media to wash the cells. From the washed cell suspension, two aliquots of 25 μL each were used for cell counting by Guava and two aliquots of 25 μL each were used for Gd content analysis by ICP-MS. For the condition without GO co-incubation, the same procedures were followed except GO was replaced by Milli-Q water.
To create the cellular phantoms in agarose, a 1% media-agarose was prepared by mixing media and 2% low melting-point agarose (Life Technologies, Carlsbad, Calif.) in equal parts. At 7 T, the media-agrose has a T1 of 2952±152 ms and a T2 of 96±1 ms. In a 4 mL 15×45 mm glass vial, 2 mL of media-agarose was gelled at room temperature around a 5 mm OD NMR tube that was later removed to create a cylindrical bore. To fill the bore, the suspension of labeled cells was centrifuged at 1000 RPM for 5 minutes. After removing the supernatant, the cell pellet was re-suspended in media-agarose and further diluted to densities of 10,000, 5,000, 2,000, 500, and 100 cells/μL. 300 μL of each cell suspension was used to fill the bores in the 4 mL vials. After filling, the vials were cooled to 4° C. for 20 minutes to solidify the suspension. Approximately 3 mL of media was added on top of the media-agarose to completely fill the vial.
T1- and T2-weighted imaging were performed on a Bruker Pharmscan 7.05 T imaging spectrometer fitted with shielded gradient coils and a RF RES 300 1H 089/023 quadrature transceiver volume coil at 25° C. (Bruker BioSpin, Billerica, Mass.). Imaging was performed using a Rapid Acquisition with Refocused Echoes (RARE) pulse sequence. For T1-weighted imaging, the imaging parameters were TR=200 ms, TE=11.7 ms, NEX=1, FOV=21×21 mm^2, slice thickness=2 mm, and matrix size=256×256. For T2-weighted HDR, the imaging parameters were TR=5000 ms, TE=100 ms, NEX=1, FOV=15×15 mm^2, slice thickness=2 mm, and matrix size=256×256. The signal intensities of the acquired images were normalized such that the blank media-agarose has the same intensity across all images. Image processing was performed using ImageJ (NIH, Bethesda, Md.). T1 and T2-weighted images were processed separately.

Substance: Diethylenetriaminepentaacetic acid gadolinium(III) dihydrogen salt hydrate [Molecule 11]
- Improvement of labeling with GO over Magnevist alone (35 mM Magnevist, 10 μg/mL GO): 57%
- Cellular Gd(III) payload relative to Gd(III)-DNA gold nanoparticles, Gd(III)-labeled polymer-liposomes, gadonanotubes and gadofullerenols (GO co-incubation): 30-50 fold
- Increase of MR sensitivity for labeled cells compared to Magnevist alone (GO co-incubation): ~10 fold
- Labeling achieved in the imaging study (Magnevist alone (35 mM), without GO): 30 fmol Gd/cell
- Enhancement by GO (imaging study, before centrifugation): 2.2 ×
- Labeling achieved in the imaging study (with GO co-incubation (10 μg/mL), 35 mM Magnevist): 47 fmol Gd/cell
- Sensitivity for labeled cells on T1-weighted MRI (with GO co-incubation (150 nm GO)): 500 cells/μL
- Loading in the imaging study (with GO, before centrifugation): 153 fmol/cell
- Sensitivity for labeled cells on T1-weighted MRI (without GO): 5000 cells/μL
- Loading in the imaging study (without GO, before centrifugation): 69 fmol/cell
